The text below walks through data of patent US9278981B2, “Compounds and compositions for inhibiting the activity of ABL1, ABL2 and BCR-ABL1” (Novartis AG, priority 2012, dated 2016).

The structures appear in SMILES notation. pIC50: −log10 of the molar value.

Assay [1] has as its target T1, ABL1 (64-515) (Homo sapiens (Human), UniProt P00519). In words: Radio ABL1 (64-515) assay (radiometric filter-binding). The format is biochemical.
In assay [2] the target is T1, ABL1 (64-515). In words: Caliper ABL1 (64-515) assay (microfluidic mobility shift). It counts as biochemical.
Experimental: Expression and purification of human ABL was performed using standard expression purification procedures. […] The His-ABL was expressed in E. coli BL21 (DE3) and the ABL proteins were isolated by Ni-affinity on a Ni-NTA column (Qiagen). The His-tag was removed by PreScission protease (GE Healthcare) and the non-phosphoprylated ABL further purified on a Mono Q HR 10/10 (GE Healthcare, mono-phosphorylated ABL is about 10-20% of total ABL protein) and HiLoad 16/60 Superdex 200 size exclusion column (GE Healthcare).
All assays were performed in 384-well microtiter plates. Each assay plate contained 8-point serial dilutions for 40 test compounds, as well as four 8-point serial dilutions of staurosporine as a reference compound, plus 16 high and 16 low controls. Liquid handling and incubation steps were done on a Thermo CatX workstation equipped with Innovadyne Nanodrop Express. Between pipetting steps, tips were cleaned in wash cycles using wash buffer.
The assay plates were prepared by addition of 50 nL per well of compound solution in 90% DMSO. […] Plates with terminated kinase reactions were transferred to the Caliper LC3000 workstations for reading. Phosphorylated and unphosphorylated peptides were separated using the Caliper microfluidic mobility shift technology. Briefly, samples from terminated kinase reactions were applied to the chip. Analytes are transported through the chip by constant buffer flow and the migration of the substrate peptide is monitored by the fluorescence signal of its label. Phosphorylated peptide (product) and unphosphorylated peptide (substrate) are separated in an electric field by their charge/mass ratio. Kinase activities were calculated from the amounts of formed phospho-peptide. IC50 values were determined from percent inhibition values at different compound concentrations by non-linear regression analysis.
Test compounds were dissolved in DMSO (10 mM) and transferred into 1.4 mL flat bottom or V-shaped Matrix tubes carrying a unique 2D matrix. The stock solutions were stored at +2° C. if not used immediately. For the test procedure the vials were defrosted and identified by a scanner whereby a working sheet was generated that guided the subsequent working steps.
Compound dilutions were made in 96-well plates. This format enabled the assay of maximally 40 individual test compounds at 8 concentrations (single points) including 4 reference compounds. The dilution protocol included the production of “pre-dilution plates”, “master plates” and “assay plates”.
Polypropylene 96-well plates were used as pre-dilution plates. […] All dilution steps were done on a HamiltonSTAR robot.
These plates were used directly for the assay which was performed in a total volume of 9.05 μL.

T1 sequence (P00519 64-515): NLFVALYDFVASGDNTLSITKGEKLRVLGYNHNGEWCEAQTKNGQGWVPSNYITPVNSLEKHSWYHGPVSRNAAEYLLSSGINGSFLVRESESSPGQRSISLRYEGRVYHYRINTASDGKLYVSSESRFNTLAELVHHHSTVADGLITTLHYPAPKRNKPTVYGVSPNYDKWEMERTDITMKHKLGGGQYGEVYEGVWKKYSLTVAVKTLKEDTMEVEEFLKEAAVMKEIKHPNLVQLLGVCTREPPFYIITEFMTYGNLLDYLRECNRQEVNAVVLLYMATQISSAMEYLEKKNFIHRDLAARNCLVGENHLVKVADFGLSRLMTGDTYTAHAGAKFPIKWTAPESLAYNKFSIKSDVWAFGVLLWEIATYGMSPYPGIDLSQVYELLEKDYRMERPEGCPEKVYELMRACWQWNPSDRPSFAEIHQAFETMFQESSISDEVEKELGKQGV

Consider `O=C(Nc1ccc(OC(F)(F)F)cc1)c1cnc(N2C[C@@H](O)[C@@H](O)C2)c(-c2cncc(F)c2)c1` [Example 235, 2-(cis-3,4-Dihydroxypyrrolidin-1-yl)-5′-fluoro-N-(4-(trifluoromethoxy)phenyl)-[3,3′-bipyridine]-5-carboxamide], for which the pIC50 on ABL1 (64-515) [1] was 8.70; on ABL1 (64-515) [2], 8.74.
Consider `CN(C)[C@H]1CN(c2ncc(C(=O)Nc3ccc(OC(F)(F)F)cc3)cc2-c2cncc(F)c2)C[C@@H]1O` [Example 236, 2-((3S,4S)-3-(Dimethylamino)-4-hydroxypyrrolidin-1-yl)-5′-fluoro-N-(4-(trifluoromethoxy)phenyl)-[3,3′-bipyridine]-5-carboxamide], for which the pIC50 is 8.52 at ABL1 (64-515) [1] and 8.85 on ABL1 (64-515) [2].
The matching figures for `NCC1CN(c2ncc(C(=O)Nc3ccc(OC(F)(F)F)cc3)cc2-c2cncc(F)c2)CC1O` (stereo not shown) [Example 237, 2-(3-(Aminomethyl)-4-hydroxypyrrolidin-1-yl)-5′-fluoro-N-(4-(trifluoromethoxy)phenyl)-[3,3′-bipyridine]-5-carboxamide]: 9.22 and 8.92.
For `NC1CN(c2ncc(C(=O)Nc3ccc(OC(F)(F)F)cc3)cc2-c2cncc(F)c2)C1` [Example 238, 2-(3-Aminoazetidin-1-yl)-5′-fluoro-N-(4-(trifluoromethoxy)phenyl)-[3,3′-bipyridine]-5-carboxamide], in that order: 8.70 and 8.59.
The matching figures for `CN(C)C1CN(c2ncc(C(=O)Nc3ccc(OC(F)(F)F)cc3)cc2-c2cncc(F)c2)C1` [Example 239, 2-(3-(Dimethylamino)azetidin-1-yl)-5′-fluoro-N-(4-(trifluoromethoxy)phenyl)-[3,3′-bipyridine]-5-carboxamide]: 8.40 and 8.59.
Regarding `N#Cc1ccncc1-c1cc(C(=O)Nc2ccc(OC(F)(F)F)cc2)cnc1N1CC[C@@H](O)C1` [Example 240, (R)-4′-Cyano-2-(3-hydroxypyrrolidin-1-yl)-N-(4-(trifluoromethoxy)phenyl)-[3,3′-bipyridine]-5-carboxamide], the results for the pIC50 at ABL1 (64-515) [1] and at ABL1 (64-515) [2] were 8.70 and 8.85, respectively.
In the case of `Nc1ncc(-c2cc(C(=O)Nc3ccc(OC(F)(F)F)cc3)cnc2N2CC[C@@H](O)C2)cc1F` [Example 241, (R)-6′-Amino-5′-fluoro-2-(3-hydroxypyrrolidin-1-yl)-N-(4-(trifluoromethoxy)phenyl)-[3,3′-bipyridine]-5-carboxamide], the results for the pIC50 on ABL1 (64-515) [1] and at ABL1 (64-515) [2] were 8.77 and 8.89, respectively.
The matching figures for `O=C(Nc1ccc(OC(F)(F)F)cc1)c1cnc(N2CC[C@@H](O)C2)c(-c2cc(F)nc(F)c2)c1` [Example 242, (R)-2′,6′-Difluoro-2-(3-hydroxypyrrolidin-1-yl)-N-(4-(trifluoromethoxy)phenyl)-[3,4′-bipyridine]-5-carboxamide]: 8.22 and 8.35.
For `O=C(Nc1ccc(OC(F)(F)Cl)cc1)c1ccc(N2CC[C@@H](O)C2)c(-c2cncnc2)c1` [Example 243, (R)—N-(4-(Chlorodifluoromethoxy)phenyl)-4-(3-hydroxypyrrolidin-1-yl)-3-(pyrimidin-5-yl)benzamide], in that order: 8.89 and 9.30.
Turning to `O=C(Nc1ccc(OC(F)(F)Cl)cc1)c1ccc(N2C[C@H](O)[C@@H](O)C2)c(-c2cncnc2)c1` [Example 244, N-(4-(Chlorodifluoromethoxy)phenyl)-4-((3S,4S)-3,4-dihydroxypyrrolidin-1-yl)-3-(pyrimidin-5-yl)benzamide], the pIC50 at ABL1 (64-515) [1] was 9.00; at ABL1 (64-515) [2] it was 9.22.
In the case of `N[C@H]1CN(c2ccc(C(=O)Nc3ccc(OC(F)(F)Cl)cc3)cc2-c2cncnc2)C[C@@H]1O` [Example 245, 4-((3S,4S)-3-Amino-4-hydroxypyrrolidin-1-yl)-N-(4-(chlorodifluoromethoxy)phenyl)-3-(pyrimidin-5-yl)benzamide], the pIC50 at ABL1 (64-515) [1] was 8.30; at ABL1 (64-515) [2] it was 9.00.
Consider `Cc1ncc(-c2cc(C(=O)Nc3ccc(OC(F)(F)Cl)cc3)ccc2N2C[C@H](O)[C@@H](O)C2)cn1` [Example 246, N-(4-(Chlorodifluoromethoxy)phenyl)-4-((3S,4S)-3,4-dihydroxypyrrolidin-1-yl)-3-(2-methylpyrimidin-5-yl)benzamide], for which the pIC50 on ABL1 (64-515) [1] was 9.00; at ABL1 (64-515) [2] it was 8.66.
As for `O=C(Nc1ccc(OC(F)(F)Cl)cc1)c1cnc(N2CCC(F)(F)C2)c(-c2cncnc2)c1` [Example 247, N-(4-(Chlorodifluoromethoxy)phenyl)-6-(3,3-difluoropyrrolidin-1-yl)-5-(pyrimidin-5-yl)nicotinamide], the pIC50 is 8.72 on ABL1 (64-515) [1] and above 9.89 on ABL1 (64-515) [2].
As for `CN(C)[C@H]1CN(c2ncc(C(=O)Nc3ccc(OC(F)(F)Cl)cc3)cc2-c2cncnc2)C[C@@H]1O` [Example 251], the negative-log IC50 (pIC50) at ABL1 (64-515) [1] was above 10.00; on ABL1 (64-515) [2] it was 9.15.
For `NC12CC1CN(c1ncc(C(=O)Nc3ccc(OC(F)(F)Cl)cc3)cc1-c1cncnc1)C2` (stereo not shown) [Example 252], in that order: 8.08 and 9.30.
For `N[C@@H]1[C@H]2CN(c3ncc(C(=O)Nc4ccc(OC(F)(F)Cl)cc4)cc3-c3cncnc3)C[C@@H]12` [Example 253], in that order: 8.70 and 9.30.
The matching figures for `O=C(Nc1ccc(OC(F)(F)Cl)cc1)c1cnc(N2Cc3cn[nH]c3C2)c(-c2cncnc2)c1` [Example 254]: above 10.00 and 9.22.
For the compound `N[C@@H]1CCCN(c2ncc(C(=O)Nc3ccc(OC(F)(F)Cl)cc3)cc2-c2cncnc2)C1` [Example 255], the pIC50 at ABL1 (64-515) [1] is 8.68; at ABL1 (64-515) [2] it was 8.96.
For `O=C(Nc1ccc(OC(F)(F)Cl)cc1)c1cnc(N2CCNC3(CC3)C2)c(-c2cncnc2)c1` [Example 256], in that order: 8.70 and 9.40.
For `O=C(Nc1ccc(OC(F)(F)Cl)cc1)c1cnc(N2CC(O)C2)c(-c2cncnc2)c1` [Example 258], in that order: 8.57 and 8.96.
The matching figures for `NC1CN(c2ncc(C(=O)Nc3ccc(OC(F)(F)Cl)cc3)cc2-c2cncnc2)C1` [Example 259]: 8.29 and above 9.89.
Turning to `O=C(Nc1ccc(OC(F)(F)Cl)cc1)c1cnc(N(CCO)CCO)c(-c2cncnc2)c1` [Example 261], the pIC50 at ABL1 (64-515) [1] was 8.74; on ABL1 (64-515) [2], 8.41.
Take `Cc1ncc(-c2cc(C(=O)Nc3ccc(OC(F)(F)Cl)cc3)cnc2N2C[C@H](O)[C@@H](O)C2)cn1` [Example 262]: the pIC50 at ABL1 (64-515) [1] was 8.70; at ABL1 (64-515) [2] it was 9.15.
For `Cc1ncncc1-c1cc(C(=O)Nc2ccc(OC(F)(F)Cl)cc2)cnc1N1CC[C@@H](O)C1` [Example 263], the values for the pIC50 on ABL1 (64-515) [1] and on ABL1 (64-515) [2] were 8.52 and above 9.89, respectively.
Consider `O=C(Nc1ccc(OC(F)(F)Cl)cc1)c1cnc(N2C[C@@H](O)[C@@H](O)C2)c(-c2cncc(F)c2)c1` [Example 264], for which the pIC50 on ABL1 (64-515) [1] is 9.00; at ABL1 (64-515) [2], 9.22.
In the case of `O=C(Nc1ccc(OC(F)(F)Cl)cc1)c1cnc(N2C[C@H](O)[C@@H](O)C2)c(-c2cncc(F)c2)c1` [Example 265], the pIC50 on ABL1 (64-515) [1] is 8.52; at ABL1 (64-515) [2], above 9.89.
The matching figures for `N#Cc1cncc(-c2cc(C(=O)Nc3ccc(OC(F)(F)Cl)cc3)cnc2N2C[C@H](O)[C@@H](O)C2)c1` [Example 269]: above 10.00 and above 9.89.
The matching figures for `Cc1ncccc1-c1cc(C(=O)Nc2ccc(OC(F)(F)Cl)cc2)cnc1N1CC[C@@H](O)C1` [Example 270]: 8.70 and 9.22.
For `Nc1ncc(-c2cc(C(=O)Nc3ccc(OC(F)(F)Cl)cc3)cnc2N2CC[C@@H](O)C2)cc1F` [Example 271], in that order: 9.30 and 9.15.
As for `O=C(Nc1ccc(OC(F)(F)Cl)cc1)c1cnc(N2CC[C@@H](O)C2)c(-c2cc(F)cnc2F)c1` [Example 272], the pIC50 on ABL1 (64-515) [1] was 8.40; at ABL1 (64-515) [2], 8.96.
For `O=C(Nc1ccc(OC(F)(F)Cl)cc1)c1cnc(N2CC[C@@H](O)C2)c(-c2cc(F)nc(F)c2)c1` [Example 273], the pIC50 on ABL1 (64-515) [1] is 8.70; at ABL1 (64-515) [2], 8.92.
For `N#Cc1ccncc1-c1cc(C(=O)Nc2ccc(OC(F)(F)Cl)cc2)cnc1N1CC[C@@H](O)C1` [Example 274], in that order: above 10.00 and 9.40.
For `CC(F)(F)Oc1ccc(NC(=O)c2cnc(N3CC[C@@H](O)C3)c(-c3cncc(F)c3)c2)cc1` [Example 275], in that order: 8.30 and 8.55.
The matching figures for `CC(F)(F)Oc1ccc(NC(=O)c2cnc(N3CC[C@@H](O)C3)c(-c3cncc(C#N)c3)c2)cc1` [Example 276]: 8.52 and 8.17.
As to `O=C(Nc1ccc(S(F)(F)(F)(F)F)cc1)c1cnc(N2CC[C@@H](O)C2)c(-c2cncc(F)c2)c1` [Example 277], the figures for the pIC50 at ABL1 (64-515) [1] and at ABL1 (64-515) [2] were 8.70 and 8.77, respectively.
For `O=C(Nc1ccc(SC(F)(F)F)nc1)c1cnc(N2CC[C@@H](O)C2)c(-c2cncnc2)c1` [Example 279, (R)-6-(3-Hydroxypyrrolidin-1-yl)-5-(pyrimidin-5-yl)-N-(6-((trifluoromethyl)thio)pyridin-3-yl)nicotinamide], in that order: 8.52 and 8.10.
The matching figures for `O=C(Nc1ccc(OC(F)(F)Cl)cc1)c1cnc(N2CC[C@@H](O)C2)c(-c2cnccc2F)c1` [Example 280, (R)—N-(4-(Chlorodifluoromethoxy)phenyl)-4′-fluoro-2-(3-hydroxypyrrolidin-1-yl)-[3,3′-bipyridine]-5-carboxamide]: 8.70 and 9.52.
On to `N[C@]1(C(F)(F)F)CCN(c2ncc(C(=O)Nc3ccc(OC(F)(F)Cl)cc3)cc2-c2cncnc2)C1` [Example 289, (R)-6-(3-Amino-3-(trifluoromethyl)pyrrolidin-1-yl)-N-(4-(chlorodifluoromethoxy)phenyl)-5-(pyrimidin-5-yl)nicotinamide], for which the pIC50 on ABL1 (64-515) [1] is 8.52; at ABL1 (64-515) [2], 9.15.

What is called pIC50 is the IC50 on a negative log10 scale, so that one unit is a factor of ten.
